Where “and” joins values, the source holds several entries; their conditions need not be identical. Identical values can stand only once. Marks after values point to notes of the source that are not given here.
Legend:
[1] = test system: disks of whole human skin; assay: Nature of the neosynthesized epidermal lipids (thin layer chromatography of 14C-labeled lipids) in whole human skin disks; format: cell-based; parameters: neosynthesis of cholesteryl sulfate, percentage of the control group: concentration or dose not given beside the values
Description: (§1) The study is performed in vitro in an organotypical model of whole human skin in culture. Two techniques successively used: • measurement of the incorporation of acetate radiolabeled with carbon 14 into the neosynthesized epidermal lipids in toto; • analysis by thin layer chromatography to separate the main classes of neosynthesized radiolabeled epidermal lipids.
(§2) A fragment of human skin was collected after an abdominal plastic surgery-operation. This was performed on a person (subject I0129). Skin disks 8 mm in diameter were cut out using a sample punch.
(§3) The skin disks are placed in gondolas. The gondolas are placed in culture wells containing MCF medium, composed of MEM/M199 medium (3/4, 1/4; v/v) supplemented with penicillin (50 IU/ml), streptomycin (50 μg/ml), sodium bicarbonate (0.2%, w/v) and FCS (2%, v/v).
(§4) The test products are tested undiluted. They are placed at the center of each human skin disk, in a proportion of 10 mg/cm^2. The incubation medium for the human skin disks (MIF medium) is composed of MCF medium containing 1 μCi/ml of acetate labeled with carbon 14 (Amersham, specific activity: 57 mCi/mmol).
(§5) The lactic acid is used in topical application (10 mg/cm^2).
(§6) The human skin disks are incubated in the presence of the test products and the reference products for 18 hours at 37° C. in a humid atmosphere containing 5% CO2.
(§7) Each experimental condition is performed in quadruplicate.
Starting with the samples of extracted lipids, 20 μl aliquots, corresponding to 3 700 cpm, are placed on silica 60 (Merck) chromatography plates. These plates are developed in three successive solvents: • 38/2/10 chloroform/acetone/methanol (v/v/v), • 40/5/5 chloroform/acetone/methanol (v/v/v), • 36/10/3/1 chloroform/ethyl acetate/ether/methanol (v/v/v/v).
This system makes it possible to separate the cholesteryl sulfate, the cerebrosides, the ceramides, the cholesterol and the tri-+diglycerides. The most polar lipids, referred to hereinbelow as “polar lipids”, remain on the base line.
The silica plates are then placed in exposure with films for autoradiography for 15 days (Amersham, Hyperfilm beta max).
The position of the various classes of lipids—polar lipids, cholesteryl sulfate, cerebrosides, ceramides 1 and 2, cholesterol and tri-+diglycerides—is determined using suitable standards.
The results are expressed as percentages of the radioactivity of the total lipids neosynthesized and deposited on the TLC.

[2] = test system: disks of whole human skin; assay: Neosynthesis of the total epidermal lipids (14C-acetate incorporation) in organotypical model of whole human skin in culture; format: cell-based; details: incubation 18 hours
Description: as §1, §2, §3, §4, §5, §6, §7
At the end of the incubation, the human skin disks are rinsed thoroughly with PBS buffer. The epidermis of each skin disk is dissociated from the dermis by means of a controlled heat shock (MilliQ water, 2 min, 62° C.) The epidermises thus dissociated are digested with trypsin (ICN, 1%, w/v) overnight at 37° C. The cell dissociation is facilitated by the action of ultrasound. […]
The radioactivity of each sample, corresponding to the amount of acetate incorporated into the neosynthesized lipids, is measured by liquid scintillation. […]

[3] = percentage of the radiolabeled total lipids applied onto the TLC, mean of 4 disks, 18 hours
[4] = percentage of the radiolabeled total lipids applied onto the TLC, single disks, 18 hours

## EGF: epidermal growth factor obtained from R&D Systems, reference product tested at 10 ng/ml
[1]; 18 hours
  neosynthesis of ceramide 1, percentage of the control group: 120%
  neosynthesis of ceramide 2, percentage of the control group: 155%
  neosynthesis of cerebrosides, percentage of the control group: 125%
  neosynthesis of cholesterol, percentage of the control group: 128%
  neosynthesis of cholesteryl sulfate, percentage of the control group: 54%
  neosynthesis of polar lipids, percentage of the control group: 119%
[1]; [3]
  neosynthesis of ceramide 1, mean: 2.72%
  neosynthesis of ceramide 2, mean: 3.00* %
  neosynthesis of cerebrosides, mean: 3.87%
  neosynthesis of cholesteryl sulfate, mean: 3.00* %
  neosynthesis of polar lipids, mean: 38.23%
  neosynthesis of tri- + diglycerides, mean: 45.10%
[1]; [4]
  neosynthesis of ceramide 1, individual skin disk: 2.02% and 1.41% and 3.41% and 4.02%
  neosynthesis of ceramide 2, individual skin disk: 3.81% and 2.38% and 2.74% and 3.05%
  neosynthesis of cerebrosides, individual skin disk: 2.87% and 3.82% and 4.77% and 4.02%
  neosynthesis of cholesterol, individual skin disk: 7.07% and 9.46% and 7.86% and 9.99%
  neosynthesis of cholesteryl sulfate, individual skin disk: 2.31% and 3.69% and 3.44% and 2.57%
  neosynthesis of polar lipids, individual skin disk: 57.27% and 34.42% and 27.69% and 33.53%
  neosynthesis of tri- + diglycerides, individual skin disk: 42.67% and 44.82% and 50.08% and 42.83%
[1]; versus control
  increase of the neosynthesis of ceramide 2: 55%
  reduction of the neosynthesis of cholesteryl sulfate: 46%
[2]; topical 10 mg/cm2, EGF 10 ng/ml
  neosynthesis of the total epidermal lipids, percentage of the control group: 122%
[2]; mean of 4 disks, topical 10 mg/cm2, EGF 10 ng/ml
  neosynthesis of the total epidermal lipids, mean: 4080.02 cpm/mg of epidermis
[2]; single disks of quadruplicate, compositions and lactic acid undiluted 10 mg/cm2 topical, EGF 10 ng/ml in medium
  neosynthesis of the total epidermal lipids, individual skin disk: 3104.63 cpm/mg of epidermis and 5043.66 cpm/mg of epidermis and 3606.76 cpm/mg of epidermis and 4565.02 cpm/mg of epidermis
